ChEMBL document CHEMBL3991601, “The target landscape of clinical kinase drugs” (Science, 2017)
Activity calls are given as the source filed them.

Key:
Ephrin type-A receptor 7 = Ephrin type-A receptor 7 (Homo sapiens, UniProt Q15375)
[1] = target: Epidermal growth factor receptor (Homo sapiens, UniProt P00533)
[2] = target: Serine/threonine-protein kinase 24 (Homo sapiens, UniProt Q9Y6E0)
[3] = target: Cell division cycle 7-related protein kinase (Homo sapiens, UniProt O00311)
[4] = target: Proto-oncogene tyrosine-protein kinase receptor Ret (Homo sapiens, UniProt P07949)
[5] = target: T1, Long-chain-fatty-acid--CoA ligase 5 (Homo sapiens, UniProt Q9ULC5)
T1 sequence (Q9ULC5 whole entry): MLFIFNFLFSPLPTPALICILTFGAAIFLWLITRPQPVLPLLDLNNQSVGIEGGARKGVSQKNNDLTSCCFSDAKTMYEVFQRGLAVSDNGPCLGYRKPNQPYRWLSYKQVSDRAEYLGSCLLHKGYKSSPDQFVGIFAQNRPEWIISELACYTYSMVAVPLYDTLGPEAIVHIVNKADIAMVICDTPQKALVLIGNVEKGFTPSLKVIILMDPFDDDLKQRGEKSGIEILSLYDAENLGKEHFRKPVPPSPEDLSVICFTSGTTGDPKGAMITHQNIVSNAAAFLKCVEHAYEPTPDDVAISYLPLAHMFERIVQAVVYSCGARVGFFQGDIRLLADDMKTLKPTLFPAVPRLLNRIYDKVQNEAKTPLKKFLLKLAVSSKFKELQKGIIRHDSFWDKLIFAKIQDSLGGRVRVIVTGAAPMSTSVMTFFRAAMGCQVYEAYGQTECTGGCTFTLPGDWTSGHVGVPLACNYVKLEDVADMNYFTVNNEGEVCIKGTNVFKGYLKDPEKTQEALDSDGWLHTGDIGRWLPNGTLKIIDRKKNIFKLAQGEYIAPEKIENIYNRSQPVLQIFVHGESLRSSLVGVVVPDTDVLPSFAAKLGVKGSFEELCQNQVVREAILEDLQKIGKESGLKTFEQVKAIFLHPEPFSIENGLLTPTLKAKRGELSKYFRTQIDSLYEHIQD

[6] = target: Guanine nucleotide-binding protein G(i) subunit alpha-2 (Homo sapiens, UniProt P04899)
Chain of Guanine nucleotide-binding protein G(i) subunit alpha-2 (P04899 whole entry): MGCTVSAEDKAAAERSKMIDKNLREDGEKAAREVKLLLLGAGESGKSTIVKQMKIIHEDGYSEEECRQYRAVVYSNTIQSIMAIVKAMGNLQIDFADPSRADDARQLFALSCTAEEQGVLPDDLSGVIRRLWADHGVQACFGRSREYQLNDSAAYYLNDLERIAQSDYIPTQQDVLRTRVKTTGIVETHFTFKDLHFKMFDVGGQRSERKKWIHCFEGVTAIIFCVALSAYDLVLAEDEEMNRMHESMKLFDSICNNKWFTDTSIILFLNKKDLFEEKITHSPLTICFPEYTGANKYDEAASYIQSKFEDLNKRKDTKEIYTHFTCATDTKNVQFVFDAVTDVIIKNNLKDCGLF

[7] = target: Mitogen-activated protein kinase 14 (Homo sapiens, UniProt Q16539)
Chain of Mitogen-activated protein kinase 14 (Q16539 whole entry): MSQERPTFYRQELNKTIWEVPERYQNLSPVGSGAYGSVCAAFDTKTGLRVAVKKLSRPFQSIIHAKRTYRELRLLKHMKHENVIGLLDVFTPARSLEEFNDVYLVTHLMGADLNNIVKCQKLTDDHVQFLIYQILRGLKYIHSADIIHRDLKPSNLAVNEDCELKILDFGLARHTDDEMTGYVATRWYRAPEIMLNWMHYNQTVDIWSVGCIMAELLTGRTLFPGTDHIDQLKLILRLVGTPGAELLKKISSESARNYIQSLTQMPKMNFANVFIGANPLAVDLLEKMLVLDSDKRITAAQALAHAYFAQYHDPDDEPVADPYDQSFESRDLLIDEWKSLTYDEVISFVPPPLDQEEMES

[8] = target: G protein-coupled receptor kinase 6 (Homo sapiens, UniProt P43250)
Chain of G protein-coupled receptor kinase 6 (P43250 whole entry): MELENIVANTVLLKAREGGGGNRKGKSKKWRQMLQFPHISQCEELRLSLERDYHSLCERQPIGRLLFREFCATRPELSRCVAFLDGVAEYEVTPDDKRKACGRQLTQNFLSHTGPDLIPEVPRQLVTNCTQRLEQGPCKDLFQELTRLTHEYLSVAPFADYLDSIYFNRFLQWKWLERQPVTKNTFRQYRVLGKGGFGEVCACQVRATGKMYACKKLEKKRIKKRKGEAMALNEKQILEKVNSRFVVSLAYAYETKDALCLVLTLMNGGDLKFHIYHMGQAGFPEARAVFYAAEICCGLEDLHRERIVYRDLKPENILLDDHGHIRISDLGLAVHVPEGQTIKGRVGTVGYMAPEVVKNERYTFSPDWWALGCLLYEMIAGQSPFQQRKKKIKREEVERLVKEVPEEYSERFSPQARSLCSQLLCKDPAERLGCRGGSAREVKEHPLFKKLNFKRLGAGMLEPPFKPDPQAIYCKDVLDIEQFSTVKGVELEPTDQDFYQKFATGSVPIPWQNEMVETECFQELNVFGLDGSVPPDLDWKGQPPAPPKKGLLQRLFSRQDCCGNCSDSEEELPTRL

[9] = target: Phosphatidylethanolamine-binding protein 1 (Homo sapiens, UniProt P30086)
Chain of Phosphatidylethanolamine-binding protein 1 (P30086 whole entry): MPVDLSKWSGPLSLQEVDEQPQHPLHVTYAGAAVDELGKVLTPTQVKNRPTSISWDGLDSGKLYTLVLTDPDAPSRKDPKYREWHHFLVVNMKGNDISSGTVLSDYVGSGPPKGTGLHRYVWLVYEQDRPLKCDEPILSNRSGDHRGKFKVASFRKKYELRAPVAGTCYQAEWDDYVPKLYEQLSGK

[10] = target: Membrane-associated progesterone receptor component 1 (Homo sapiens, UniProt O00264)
Chain of Membrane-associated progesterone receptor component 1 (O00264 whole entry): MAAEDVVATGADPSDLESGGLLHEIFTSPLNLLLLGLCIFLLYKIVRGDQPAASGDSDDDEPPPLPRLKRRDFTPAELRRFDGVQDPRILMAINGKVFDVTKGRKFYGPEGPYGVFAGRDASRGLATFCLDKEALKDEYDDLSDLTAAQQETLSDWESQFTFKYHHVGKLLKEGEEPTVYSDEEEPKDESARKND

[11] = target: Serine/threonine-protein kinase PLK1 (Homo sapiens, UniProt P53350)
[12] = target: Dual specificity protein kinase CLK2 (Homo sapiens, UniProt P49760)
[13] = target: Protein kinase C theta type (Homo sapiens, UniProt Q04759)
[14] = target: T2, Adenine phosphoribosyltransferase (Homo sapiens, UniProt P07741)
T2 sequence (P07741 whole entry): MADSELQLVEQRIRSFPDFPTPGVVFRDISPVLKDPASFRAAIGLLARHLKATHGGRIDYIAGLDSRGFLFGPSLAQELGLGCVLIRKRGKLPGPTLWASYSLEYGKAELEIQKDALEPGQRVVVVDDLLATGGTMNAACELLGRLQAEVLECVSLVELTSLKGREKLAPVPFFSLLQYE

UMP-CMP kinase = target: T3, UMP-CMP kinase (Homo sapiens, UniProt P30085)
T3 sequence (P30085 whole entry): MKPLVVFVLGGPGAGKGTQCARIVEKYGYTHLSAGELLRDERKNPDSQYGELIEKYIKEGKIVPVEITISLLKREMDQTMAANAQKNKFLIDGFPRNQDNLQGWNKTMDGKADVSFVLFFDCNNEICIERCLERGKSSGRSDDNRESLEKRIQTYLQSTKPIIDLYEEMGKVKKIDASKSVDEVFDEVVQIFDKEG

[15] = target: Choline-phosphate cytidylyltransferase A (Homo sapiens, UniProt P49585)
Obg-like ATPase 1 = Obg-like ATPase 1 (Homo sapiens, UniProt Q9NTK5)
Chain of Obg-like ATPase 1 (Q9NTK5 whole entry, looked up): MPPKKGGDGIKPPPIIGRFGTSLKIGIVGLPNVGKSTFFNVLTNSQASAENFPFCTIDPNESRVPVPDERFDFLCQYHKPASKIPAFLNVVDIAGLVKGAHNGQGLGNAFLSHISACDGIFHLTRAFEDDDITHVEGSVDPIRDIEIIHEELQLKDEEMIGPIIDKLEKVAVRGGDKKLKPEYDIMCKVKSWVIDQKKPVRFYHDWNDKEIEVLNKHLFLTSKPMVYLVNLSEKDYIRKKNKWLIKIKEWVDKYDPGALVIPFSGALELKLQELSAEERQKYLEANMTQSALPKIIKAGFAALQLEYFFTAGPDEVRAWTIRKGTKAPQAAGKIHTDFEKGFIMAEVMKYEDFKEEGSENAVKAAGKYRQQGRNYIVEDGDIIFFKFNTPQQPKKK

Measured: Kd
Also: in the data inactive means no Kd found up to 30 µM.

Chain of Ephrin type-A receptor 7 (Q15375 whole entry): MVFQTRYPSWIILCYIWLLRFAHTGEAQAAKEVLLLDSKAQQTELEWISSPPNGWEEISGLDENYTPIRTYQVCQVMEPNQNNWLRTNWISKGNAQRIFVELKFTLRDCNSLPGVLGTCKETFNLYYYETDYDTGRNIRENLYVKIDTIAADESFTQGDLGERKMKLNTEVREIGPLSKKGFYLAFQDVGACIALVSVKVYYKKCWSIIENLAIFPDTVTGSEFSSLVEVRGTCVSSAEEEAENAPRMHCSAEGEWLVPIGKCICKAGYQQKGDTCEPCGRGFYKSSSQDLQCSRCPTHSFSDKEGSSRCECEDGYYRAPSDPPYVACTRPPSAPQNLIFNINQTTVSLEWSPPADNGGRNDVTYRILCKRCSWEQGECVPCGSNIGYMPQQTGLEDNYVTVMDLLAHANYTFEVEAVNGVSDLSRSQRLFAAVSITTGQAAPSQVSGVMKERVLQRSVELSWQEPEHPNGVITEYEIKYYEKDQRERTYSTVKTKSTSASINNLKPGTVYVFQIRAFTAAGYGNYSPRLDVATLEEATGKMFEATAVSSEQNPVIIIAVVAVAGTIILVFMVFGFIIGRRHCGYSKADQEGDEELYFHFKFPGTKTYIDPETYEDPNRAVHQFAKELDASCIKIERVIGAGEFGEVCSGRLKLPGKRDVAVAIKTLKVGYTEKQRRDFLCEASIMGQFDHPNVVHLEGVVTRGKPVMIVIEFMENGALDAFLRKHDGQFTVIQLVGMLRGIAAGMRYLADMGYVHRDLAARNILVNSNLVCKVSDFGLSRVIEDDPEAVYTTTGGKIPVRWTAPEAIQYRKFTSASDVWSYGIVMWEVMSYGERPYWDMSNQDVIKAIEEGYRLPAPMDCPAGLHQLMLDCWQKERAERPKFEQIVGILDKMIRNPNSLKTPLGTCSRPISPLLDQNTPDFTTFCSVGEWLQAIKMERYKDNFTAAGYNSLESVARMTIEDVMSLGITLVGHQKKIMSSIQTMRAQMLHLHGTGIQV
Chain of Serine/threonine-protein kinase 24 (Q9Y6E0 whole entry): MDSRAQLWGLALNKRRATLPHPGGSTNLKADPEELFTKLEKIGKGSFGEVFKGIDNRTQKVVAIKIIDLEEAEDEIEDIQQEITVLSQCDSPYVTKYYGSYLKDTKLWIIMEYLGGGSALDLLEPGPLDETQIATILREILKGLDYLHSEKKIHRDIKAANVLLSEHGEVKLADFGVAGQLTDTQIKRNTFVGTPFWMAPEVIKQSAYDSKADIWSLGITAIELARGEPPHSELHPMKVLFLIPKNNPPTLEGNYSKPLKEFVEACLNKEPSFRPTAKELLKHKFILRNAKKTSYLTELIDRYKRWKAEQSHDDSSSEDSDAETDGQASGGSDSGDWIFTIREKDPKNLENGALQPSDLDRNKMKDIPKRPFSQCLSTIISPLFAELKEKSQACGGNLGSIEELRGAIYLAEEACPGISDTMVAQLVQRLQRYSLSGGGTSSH
Chain of Epidermal growth factor receptor (P00533 whole entry): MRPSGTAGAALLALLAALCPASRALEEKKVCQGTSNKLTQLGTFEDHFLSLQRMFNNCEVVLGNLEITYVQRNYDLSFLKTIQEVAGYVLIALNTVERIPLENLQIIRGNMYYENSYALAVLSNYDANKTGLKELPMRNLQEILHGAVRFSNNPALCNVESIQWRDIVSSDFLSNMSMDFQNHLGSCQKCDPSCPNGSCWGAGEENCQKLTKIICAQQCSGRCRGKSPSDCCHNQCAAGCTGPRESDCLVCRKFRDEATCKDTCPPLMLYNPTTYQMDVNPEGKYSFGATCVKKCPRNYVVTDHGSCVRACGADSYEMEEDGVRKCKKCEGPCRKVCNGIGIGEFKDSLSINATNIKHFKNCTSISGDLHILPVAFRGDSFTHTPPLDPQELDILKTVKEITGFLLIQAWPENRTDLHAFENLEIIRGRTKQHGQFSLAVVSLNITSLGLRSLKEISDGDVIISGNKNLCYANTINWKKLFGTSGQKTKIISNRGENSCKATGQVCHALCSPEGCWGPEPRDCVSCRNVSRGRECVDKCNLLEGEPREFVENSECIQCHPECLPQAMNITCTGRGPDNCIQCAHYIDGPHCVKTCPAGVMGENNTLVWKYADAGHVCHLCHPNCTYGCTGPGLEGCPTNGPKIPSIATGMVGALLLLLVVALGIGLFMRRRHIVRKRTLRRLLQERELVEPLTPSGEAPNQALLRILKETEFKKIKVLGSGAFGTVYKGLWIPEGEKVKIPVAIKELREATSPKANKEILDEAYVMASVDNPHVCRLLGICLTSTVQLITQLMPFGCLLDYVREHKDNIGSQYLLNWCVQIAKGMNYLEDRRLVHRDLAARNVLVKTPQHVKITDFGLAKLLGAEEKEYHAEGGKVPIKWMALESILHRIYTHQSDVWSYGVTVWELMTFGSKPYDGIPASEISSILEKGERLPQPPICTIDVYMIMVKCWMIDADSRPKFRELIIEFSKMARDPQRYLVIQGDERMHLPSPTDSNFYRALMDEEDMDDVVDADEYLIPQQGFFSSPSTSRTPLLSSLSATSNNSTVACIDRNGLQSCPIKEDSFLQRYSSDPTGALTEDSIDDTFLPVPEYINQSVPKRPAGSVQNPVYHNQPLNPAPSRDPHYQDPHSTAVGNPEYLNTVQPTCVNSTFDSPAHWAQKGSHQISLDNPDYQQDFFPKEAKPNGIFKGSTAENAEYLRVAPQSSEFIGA

C[C@@H](Nc1cc(F)cc(F)c1)c1cc(C(=O)N(C)C)cc2c(=O)cc(N3CCOCC3)oc12 [AZD-8186]
inactive: Ephrin type-A receptor 7 > 30 µM | [1] > 30 µM | [2] > 30 µM | [3] > 30 µM | [4] > 30 µM | [5] > 30 µM | [6] > 30 µM | [7] > 30 µM

CC[C@H](Nc1ncnc2[nH]cnc12)c1nc2cccc(F)c2c(=O)n1-c1ccccc1 [IDELALISIB]
inactive: Ephrin type-A receptor 7 > 30 µM | [8] > 30 µM | [1] > 30 µM | [9] > 30 µM | [2] > 30 µM | [10] > 30 µM | [11] > 30 µM | [4] > 30 µM | [5] > 30 µM | [6] > 30 µM | [7] > 30 µM | [12] > 30 µM | [13] > 30 µM | [14] > 30 µM

C[C@@H](c1ccc2nccn2c1)n1nnc2ncc(-c3cnn(C)c3)nc21 [SAVOLITINIB]
inactive: UMP-CMP kinase > 30 µM | [1] > 30 µM | [9] > 30 µM | [2] > 30 µM | [10] > 30 µM | [4] > 30 µM | [5] > 30 µM | [7] > 30 µM | [12] > 30 µM | [14] > 30 µM

CN1N=C(N)c2cn([C@@H]3O[C@H](COP(=O)(O)O)[C@@H](O)[C@H]3O)c3ncnc1c23 [TRICIRIBINE PHOSPHATE]
inactive: UMP-CMP kinase > 30 µM | [8] > 30 µM | [15] > 30 µM | [1] > 30 µM | [9] > 30 µM | [2] > 30 µM | [3] > 30 µM | [10] > 30 µM | [4] > 30 µM | Obg-like ATPase 1 > 30 µM | [7] > 30 µM | [13] > 30 µM | [14] > 30 µM

Nc1nc(N)c2nc(-c3cccc(O)c3)c(-c3cccc(O)c3)nc2n1 [TG100-115]
inactive: [8] > 30 µM | [1] > 30 µM | [5] > 30 µM | Obg-like ATPase 1 > 30 µM | [6] > 30 µM

CN1CCN(c2ccc3nc(-c4c(N)c5c(F)cccc5[nH]c4=O)[nH]c3c2)CC1 [DOVITINIB]
inactive: [8] > 30 µM | [15] > 30 µM | [10] > 30 µM | Obg-like ATPase 1 > 30 µM

C1=C/COCc2cc(ccc2OCCN2CCCC2)Nc2nccc(n2)-c2cccc(c2)COC/1 [PACRITINIB]
inactive: Ephrin type-A receptor 7 > 30 µM | [1] > 30 µM | [9] > 30 µM | [2] > 30 µM | [4] > 30 µM | Obg-like ATPase 1 > 30 µM | [7] > 30 µM | [14] > 30 µM

CCc1cnn2c(NCc3ccc[n+]([O-])c3)cc(N3CCCC[C@H]3CCO)nc12 [DINACICLIB]
inactive: Ephrin type-A receptor 7 > 30 µM | UMP-CMP kinase > 30 µM | [8] > 30 µM | [15] > 30 µM | [1] > 30 µM | [9] > 30 µM | [2] > 30 µM | [10] > 30 µM | [5] > 30 µM | Obg-like ATPase 1 > 30 µM | [6] > 30 µM | [14] > 30 µM

Cn1ncc(Cl)c1-c1cc(C(=O)N[C@H](CN)Cc2cccc(F)c2)sc1Cl [AFURESERTIB]
inactive: Ephrin type-A receptor 7 > 30 µM | [1] > 30 µM | [9] > 30 µM | [3] > 30 µM | [10] > 30 µM | [4] > 30 µM | [6] > 30 µM | [7] > 30 µM | [13] > 30 µM

CNC(=O)c1ccc(-c2cnc3ncc(Cc4ccc5ncccc5c4)n3n2)cc1F [CAPMATINIB]
inactive: Ephrin type-A receptor 7 > 30 µM | [1] > 30 µM | [9] > 30 µM | [3] > 30 µM | [4] > 30 µM | Obg-like ATPase 1 > 30 µM | [6] > 30 µM | [7] > 30 µM | [13] > 30 µM | [14] > 30 µM

CCn1c(-c2nonc2N)nc2c(C#CC(C)(C)O)ncc(OC[C@H]3CCCNC3)c21 [GSK-690693]
inactive: UMP-CMP kinase > 30 µM | [9] > 30 µM | [10] > 30 µM | [5] > 30 µM | Obg-like ATPase 1 > 30 µM | [14] > 30 µM

Cn1cc(-c2ccc(F)c(C(F)(F)F)c2)nc1C1CCN(c2ncnc3[nH]ncc23)CC1 [LY-2584702]
inactive: Ephrin type-A receptor 7 > 30 µM | UMP-CMP kinase > 30 µM | [1] > 30 µM | [9] > 30 µM | [2] > 30 µM | [10] > 30 µM | [4] > 30 µM | [5] > 30 µM | Obg-like ATPase 1 > 30 µM | [6] > 30 µM | [7] > 30 µM | [13] > 30 µM | [14] > 30 µM

Cc1cn(-c2cc(NC(=O)c3ccc(C)c(Nc4nccc(-c5cccnc5)n4)c3)cc(C(F)(F)F)c2)cn1 [NILOTINIB]
inactive: UMP-CMP kinase > 30 µM | [8] > 30 µM | [9] > 30 µM | [3] > 30 µM | [10] > 30 µM | Obg-like ATPase 1 > 30 µM

CNC(=O)c1ccc(C)c(-n2c(C)cc(OCc3ccc(F)cc3F)c(Br)c2=O)c1 [PH-797804]
inactive: [1] > 30 µM | [9] > 30 µM | [10] > 30 µM | [4] > 30 µM | [5] > 30 µM | [6] > 30 µM | [12] > 30 µM
